In test [1] the target is T1, Acetylcholinesterase from Electrophorus electricus (Electrophorus electricus, UniProt O42275).
T1 construct: purchased Sigma Aldrich (Shanghai, China)
Put plainly: Acetylcholinesterase inhibition assay (Ellman, ATCI substrate). It counts as biochemical. An excerpt: (§1) Acetylcholinesterase from Electrophorus electricus, alphaglucosidase from Saccharomyces cerevisiae, and xanthine oxidase from bovine milk were obtained from Sigma Aldrich (Shanghai, China). The other reagents used in the bioassays were purchased either from Solarbio or Sigma Aldrich. Analytical reagent grade organic solvents for extraction were purchased from XL Xilong Scientific Chemical. Silica gel plates (Silica gel 60 F254 0.2 mm layer thickness) were purchased from Merck (KGaA, Darmstadt, Germany). A spectrometer (Thermo Scientific Multiskan GO, Vantaa, Finland) was used for all measurements of AChE, AG and XO inhibitory activities. The venom was extracted and collected manually from the adult specimens of B. asper snakes from Colombia (South America) that were held captive in the Serpentarium at University of Antioquia. The venom was centrifuged, and the supernatant was lyophilized and frozen at −70 °C until its use.
AChE inhibition was determined according to the method of Ellman with ATCI as substrate. […] The control contained all components except the tested extract. The inhibitory rate was calculated as the formula: %I = [1 − (ODs−OD sample sb)/ODn-ODnb] × 100%; where: ODn is the absorbance value of the sample system in which sample is substituted by PBS, ODnb is the absorbance value of ODn in which no AChE was added, ODsb is the absorbance of ODs in which no AchE was added.

Test [2] has as its target T2, alphaglucosidase from Saccharomyces cerevisiae (Saccharomyces cerevisiae, UniProt P53341).
T2 construct: purchased Sigma Aldrich (Shanghai, China)
Put plainly: Alphaglucosidase inhibition assay (pNPG). It counts as biochemical. To be noted: for inhibitory activity for the enzyme AG (in words): at any of the tested doses (3.125-50 µg/mL).
Source text: as §1
The AG inhibition activity was evaluated by measuring the release of p-nitrophenol from p nitrophenyl-α-D-glucopyranoside (pNPG) following the protocol proposed by Pistia-Brueggemann, with modifications. […] The control (C-) contained all the reagents but the sample was substituted by PBS. […] The inhibitory rate was calculated as the formula: %I = [1 − (ODs − OD sample sb)/ODn-ODnb] × 100%; where: ODn is the absorbance value of the sample system in which sample is substituted by PBS, ODnb is the absorbance value of ODn in which no AG was added, ODsb is the absorbance of ODs in which no AG was added.

For test [3], the target named is T3, xanthine oxidase from bovine milk (Bos taurus, UniProt P80457).
T3 construct: purchased Sigma Aldrich (Shanghai, China); host or cells: bovine milk
T3 sequence (P80457 whole entry): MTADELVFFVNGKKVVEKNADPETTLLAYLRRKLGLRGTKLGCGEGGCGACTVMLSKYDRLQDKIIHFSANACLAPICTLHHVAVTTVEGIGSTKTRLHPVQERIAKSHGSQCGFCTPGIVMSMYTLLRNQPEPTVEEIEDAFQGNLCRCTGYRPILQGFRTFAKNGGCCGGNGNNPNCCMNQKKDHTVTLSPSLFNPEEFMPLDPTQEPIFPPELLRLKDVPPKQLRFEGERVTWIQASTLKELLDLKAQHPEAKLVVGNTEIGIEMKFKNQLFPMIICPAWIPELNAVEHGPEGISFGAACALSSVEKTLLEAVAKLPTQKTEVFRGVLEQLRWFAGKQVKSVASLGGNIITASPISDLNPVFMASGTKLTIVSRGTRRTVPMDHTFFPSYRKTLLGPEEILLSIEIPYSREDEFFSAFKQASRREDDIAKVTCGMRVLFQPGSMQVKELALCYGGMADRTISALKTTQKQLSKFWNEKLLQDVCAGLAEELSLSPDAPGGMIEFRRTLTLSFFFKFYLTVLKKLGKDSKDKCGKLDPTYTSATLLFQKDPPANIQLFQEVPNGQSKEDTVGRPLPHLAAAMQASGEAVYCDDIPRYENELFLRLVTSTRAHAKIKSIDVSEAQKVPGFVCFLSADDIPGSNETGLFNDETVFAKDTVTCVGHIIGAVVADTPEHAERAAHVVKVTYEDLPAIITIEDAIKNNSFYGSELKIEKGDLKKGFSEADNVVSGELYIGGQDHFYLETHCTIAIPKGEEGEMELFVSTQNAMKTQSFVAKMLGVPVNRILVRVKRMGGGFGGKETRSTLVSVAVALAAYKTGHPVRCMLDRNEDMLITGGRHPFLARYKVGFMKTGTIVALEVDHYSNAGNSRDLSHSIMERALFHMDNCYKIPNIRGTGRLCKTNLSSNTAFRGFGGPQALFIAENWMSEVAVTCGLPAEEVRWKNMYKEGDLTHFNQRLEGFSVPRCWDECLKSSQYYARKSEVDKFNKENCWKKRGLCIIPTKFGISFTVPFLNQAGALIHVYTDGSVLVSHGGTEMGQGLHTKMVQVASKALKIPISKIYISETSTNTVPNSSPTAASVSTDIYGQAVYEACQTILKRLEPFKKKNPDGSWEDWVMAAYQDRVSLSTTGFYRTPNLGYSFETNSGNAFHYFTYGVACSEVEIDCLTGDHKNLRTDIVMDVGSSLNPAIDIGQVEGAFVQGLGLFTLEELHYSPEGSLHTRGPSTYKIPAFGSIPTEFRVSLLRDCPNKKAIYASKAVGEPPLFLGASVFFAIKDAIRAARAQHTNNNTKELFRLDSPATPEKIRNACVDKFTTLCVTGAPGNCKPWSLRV
Nature of the test: Xanthine oxidase inhibition assay. It is filed as biochemical.
Source text: as §1
The assay was based on the developed method of Valentao [56] and modified for application in microplates by Lopez-Cruz. All test samples were dissolved in a 50 mM phosphate buffer to simulate the environment in which the reaction occurs in the body. […] The control contained all components except the sample. The inhibitory rate was calculated as the formula: %I = [1 − (ODs − OD sample sb)/ODn-ODnb] × 100%; where: ODn is the absorbance value of the sample system in which sample is substituted by PBS, ODnb is the absorbance value of ODn in which no XO was added, ODsb is the absorbance of ODs in which no XO was added.

The test system of test [4] is B. asper venom. Put plainly: Inhibition of proteolytic activity of venom on azocasein. It counts as biochemical, Bothrops asper. To be noted: 3 µg venom per well.
Source text: as §1
The proteolytic activity was measured on azocasein (Sigma Aldrich, St. Lous, MO, USA) according to Wang with some modifications. […] The supernatant (100 μL) was mixed with an equal volume of 0.5 M NaOH, and the absorbance was measured at 450 nm. Results are shown as percentage of activity (absorbance at 450 nm). […]

The subject of test [5] is Metalloproteinase (Batx-I). Put plainly: Inhibition of proteolytic activity of isolated metalloproteinase on azocasein. Conditions: 3 µg toxin per well. It counts as biochemical, Bothrops atrox. The procedure:
(§2) Batx-I was isolated from Bothrops atrox according to the protocol of Patiño. Purification was done by ion-exchange chromatography (CM Sephadex C25) and the toxin purity was tested by RP-HPLC and SDS PAGE. PLA2 was isolated from Crotalus durissus cumanensis according to the protocol of Pereañez. PLA2 was purified by RP-HPLC on C-18 column eluted at 1.0 mL/min with a gradient from 0% to 100% acetonitrile in 0.1% trifluoroacetic acid (v/v). Absorbance was monitored at 215 nm. Batx-I and Cdcum6 were lyophilized and stored at −20 °C until their use.
The proteolytic activity was measured on azocasein (Sigma Aldrich, St. Lous, MO, USA) according to Wang with some modifications. Briefly, 3 µg of B. asper venom or Batx-I were dissolved in 5 μL of 25 mM Tris (0.15 M NaCl, 5 mM CaCl2), pH 7.4, and were mixed with different doses of indole in order to obtain 1:20, 1:10 and 1:5 w/w ratios, respectively. Mixes were pre-incubated for 30 min at 37 °C. Later, these solutions were incubated with 10 mg/mL of azocasein diluted in the same buffer. After an incubation of 90 min at 37 °C, the reaction was stopped by the addition of 200 μL of trichloroacetic acid. The samples were then centrifuged at 3000 rpm for 5 min. The supernatant (100 μL) was mixed with an equal volume of 0.5 M NaOH, and the absorbance was measured at 450 nm. Results are shown as percentage of activity (absorbance at 450 nm). […]

For test [6], the system named is B. asper venom. Nature of the test: Inhibition of coagulant activity of venom (plasma clotting time). It counts as biochemical, Bothrops asper. As for the experimental part: The method described by Theakston and Reid was followed, with small modifications. Briefly, 1.0 µg of B. asper dissolved in 25 µL PBS were mixed with 75 µL of different concentrations of indole, and pre-incubated for 30 min at 37 °C. After, 100 µL of mixtures were added to 0.2 mL of plasma, and the time required for plasma coagulation was determined.

For test [7], the system named is Phospholipase A2 (Cdcum6). Put plainly: Inhibition of PLA2 activity with 4N3OBA substrate. It counts as biochemical, Crotalus durissus cumanensis. As for the experimental part: as §2
The inhibitory effect of indole on the PLA2 of snake venom was assessed by two methods; the first of them, using monodispersed substrate 4N3OBA (manufactured by BIOMOL, Hamburg Germany) according to the method described by Holzer and Mackessy and adapted for a 96-well ELISA plate. […] The inhibitory effect of indole on PLA2 activity was determined through pre-incubation of the enzyme with each concentration of the compound for 30 min at 37 °C. After the incubation period, the sample was added to the assay and the reaction was monitored at 425 nm for 40 min at 37 °C. The quantity of chromophore released (4-nitro-3-hydroxy benzoic acid) was proportional to the enzymatic activity. […]

For test [8], the system named is B. asper venom. Put plainly: Inhibition of indirect hemolytic activity (agarose-erythrocyte-egg yolk gels). It is filed as biochemical, Bothrops asper. To be noted: at tested doses. The procedure:
The second method to evaluate the inhibitory effect of indole on PLA2, was determining the inhibition of the indirect hemolytic activity. This was evaluated in agarose-erythrocyte-egg yolk gels according to Gutierrez. It used a minimum indirect hemolytic dose (MIHD) of B. asper venom of 2.2 μg, defined as the amount of venom that induced a 20 mm diameter hemolytic halo. Venom and different doses of indole were preincubated for 30 min at 37 °C and the inhibitory potential was measured after 20 h of plate incubation at 37 °C. This experiment was done in triplicate.

Where [9] appears, read: dose 50 µg/mL, listed as indole.

Values joined by “and” are separate entries in the source; they are usually repeats but may differ in a detail not shown here. Equal values may be shown once. Marks after values point to notes of the source that are not given here.

This note sets out measurements from paper PMC6669558, “Bioactive Compounds Isolated from Marine Bacterium Vibrio neocaledonicus and Their Enzyme Inhibitory Activities” (Marine Drugs, 2019).

T2 sequence (P53341 whole entry): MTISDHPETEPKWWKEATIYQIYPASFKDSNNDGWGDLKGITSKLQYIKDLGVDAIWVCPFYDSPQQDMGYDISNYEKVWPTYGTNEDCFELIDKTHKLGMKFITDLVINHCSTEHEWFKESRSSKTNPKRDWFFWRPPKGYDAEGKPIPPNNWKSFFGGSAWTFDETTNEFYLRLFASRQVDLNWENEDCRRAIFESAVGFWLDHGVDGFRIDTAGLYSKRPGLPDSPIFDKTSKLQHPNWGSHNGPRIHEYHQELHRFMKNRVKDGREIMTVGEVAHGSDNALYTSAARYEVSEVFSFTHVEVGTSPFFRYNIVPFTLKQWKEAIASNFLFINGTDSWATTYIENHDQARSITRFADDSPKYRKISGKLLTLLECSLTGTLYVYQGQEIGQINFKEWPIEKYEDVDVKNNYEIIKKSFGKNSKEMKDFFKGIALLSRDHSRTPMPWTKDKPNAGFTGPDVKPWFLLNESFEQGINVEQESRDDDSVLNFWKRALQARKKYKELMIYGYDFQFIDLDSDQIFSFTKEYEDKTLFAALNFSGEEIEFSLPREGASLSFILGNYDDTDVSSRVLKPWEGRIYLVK
T1 sequence (O42275 24-633): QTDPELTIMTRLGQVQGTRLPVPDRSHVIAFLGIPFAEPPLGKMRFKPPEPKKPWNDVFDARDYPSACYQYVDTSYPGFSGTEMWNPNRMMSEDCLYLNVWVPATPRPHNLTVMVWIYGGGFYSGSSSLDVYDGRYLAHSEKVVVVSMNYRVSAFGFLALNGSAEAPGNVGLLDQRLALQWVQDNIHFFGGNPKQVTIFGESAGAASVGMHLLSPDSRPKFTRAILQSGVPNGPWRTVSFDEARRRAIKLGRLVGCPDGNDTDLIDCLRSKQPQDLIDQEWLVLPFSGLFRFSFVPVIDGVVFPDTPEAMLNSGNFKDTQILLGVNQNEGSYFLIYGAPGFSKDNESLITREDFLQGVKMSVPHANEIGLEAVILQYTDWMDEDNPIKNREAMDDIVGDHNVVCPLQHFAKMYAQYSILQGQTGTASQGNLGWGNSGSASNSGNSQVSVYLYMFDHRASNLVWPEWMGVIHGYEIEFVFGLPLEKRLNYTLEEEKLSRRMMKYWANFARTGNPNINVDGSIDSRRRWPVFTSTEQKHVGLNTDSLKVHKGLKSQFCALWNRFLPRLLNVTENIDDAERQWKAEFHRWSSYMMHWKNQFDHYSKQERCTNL

Take `O=Cc1c[nH]c2ccccc12` [1H-indole-3-carboxaldehyde]: the AChEI% in test [1] (dose 3.125 µg/mL), in test [1] (dose 6.25 µg/mL), in test [1] (dose 25 µg/mL) and in test [1] (dose 50 µg/mL) was 0% each time. Also, in test [2], the “inhibitory activity for the enzyme AG (in words)” value is reported as “no inhibitory activity”. The AGI% in test [2] (dose 3.125 µg/mL), in test [2] (dose 6.25 µg/mL), in test [2] (dose 25 µg/mL) and in test [2] (dose 50 µg/mL) was 0% in each case. For the same compound, in test [3], the half-inhibitory concentration (IC50) amounted to 13.4 ± 0.39 µM. Further, the XOI% in test [3] (dose 3.125 µg/mL) is 61.14% and 61.14 ± 0.14 %; in test [3] (dose 6.25 µg/mL) it was 67.69% and 67.69 ± 0.34 %; in test [3] (dose 25 µg/mL), 86.49% and 86.49 ± 0.89 %; in test [3] (dose 50 µg/mL), 100% and 100 *** %.
As to `O=Cc1ccc(O)cc1` [4-hydroxybenzaldehyde], the concentration for half-maximal inhibition (IC50) in test [1] amounted to 6890 ± 118 µM; in test [3], 506 ± 16 µM. Moreover, the AChEI% in test [1] (dose 3.125 µg/mL) was 0%; in test [1] (dose 6.25 µg/mL), 4.21 ± 0.01%; in test [1] (dose 25 µg/mL) it was 14.26 ± 0.011%; in test [1] (dose 50 µg/mL), 25.7% and 25.7 ± 0.56%. Moreover, the “inhibitory activity for the enzyme AG (in words)” value in test [2] is on record as “no inhibitory activity”. The AGI% in test [2] (dose 3.125 µg/mL), in test [2] (dose 6.25 µg/mL), in test [2] (dose 25 µg/mL) and in test [2] (dose 50 µg/mL) was 0% throughout. The XOI% is 17.39 ± 0.49% in test [3] (dose 3.125 µg/mL); 25.27 ± 0.19% in test [3] (dose 6.25 µg/mL); 31.67 ± 0.52% in test [3] (dose 25 µg/mL); 50.75% and 50.75 ± 0.50% in test [3] (dose 50 µg/mL).
`c1ccc2[nH]ccc2c1` [Indole, indole]: the IC50 in test [1] came to 335 ± 13.1 µM; in test [2] (read-out: AG (IC50 µM)), 18.7 ± 1.1 µM; in test [3] it was 843 ± 16.7 µM. The AChEI% in test [1] (dose 3.125 µg/mL) is on record as 0%; in test [1] (dose 6.25 µg/mL), 9.42 ± 0.07%; in test [1] (dose 25 µg/mL), 37.54 ± 1.26%; in test [1] (dose 50 µg/mL) it was 51.3 ± 1.67 %; in test [1] (setting [9]), 51.3%. In addition, the AGI% was found to be 51.43 ± 1.06 % in test [2] (dose 3.125 µg/mL); 51.43% in test [2] (dose 3.125 µg/mL, listed as indole); 81.49 ± 1.17 % in test [2] (dose 6.25 µg/mL); 81.49% in test [2] (dose 6.25 µg/mL, listed as indole); 94.4 ± 1.01 % in test [2] (dose 25 µg/mL); 94.4% in test [2] (dose 25 µg/mL, listed as indole). Besides, the AGI% in test [2] (dose 50 µg/mL) was 100 *** %. Moreover, the XOI% in test [3] (dose 3.125 µg/mL) came out at 15.01 ± 0.31%; in test [3] (dose 6.25 µg/mL), 17.77 ± 0.52%; in test [3] (dose 25 µg/mL), 25.17 ± 0.65%; in test [3] (dose 50 µg/mL), 44.30 ± 1.14%; in test [3] (setting [9]), 44.3%. In addition, the “proteolytic activity inhibition of B. asper venom (in words)” value in the test on B. asper venom [4] (venom:compound ratio 1:10) was “weak inhibition without significance”. For the same compound, the “proteolytic activity inhibition of B. asper venom” value in the test with B. asper venom [4] (venom:compound ratio 1:20 w/w) is on record as 77.9% ± 5.5. The “inhibition of proteolytic activity of metalloprotease” value in test [5] (toxin:compound ratio 1:5, not significant) is recorded as 4.31 ± 1.9; in test [5] (toxin:compound ratio 1:10), 13.54 ± 2.5. For the same compound, the “coagulant activity of the compound by itself (in words)” value in the test with B. asper venom [6] (compound alone, after half an hour of incubation) is reported as “did not generate coagulant activity”. For the same compound, the “inhibition of the coagulating effect in vitro (in words)” value in the test with B. asper venom [6] (induced by 1.0 µg of venom) is recorded as “significant in vitro inhibition”. Further, in the test with B. asper venom [6] (venom:compound ratio 1:20 w/w, 1.0 µg venom, venom alone 21.6 ± 0.8 s), the “maximum delay time for clotting onset (clotting time)” value was 99 ± 4.0 s. Moreover, the entries for the “inhibition of PLA2 activity (given as proteolytic activity inhibition)” value in test [7] (toxin:compound ratio 1:10) and in test [7] (toxin:compound ratio 1:20) were 10.0% and 15.20%, respectively. The “inhibition of the indirect hemolytic activity of the complete venom (in words)” value in the test on B. asper venom [8] is given as “did not show inhibition”.

The IC50 is the point on the concentration scale where inhibition reaches its midpoint.
